# Assay results as given in patent US20210403435A1, “HERBICIDAL COMPOUNDS” (SYNGENTA CROP PROTECTION AG, priority 2018, published 2021).
# What was measured:
# Experiment in all cases: Post-emergence efficacy, glasshouse, evaluated after 13 days
# Assay type in all cases: in vivo
# [1] = tested on: Eleusine indica (ELEIN); settings: Eleusine indica, 312 h; post-emergence application, 500 g/Ha, evaluated after 13 days; read-out: Control of weed species ELEIN (100=total damage to plant; 0=no damage to plant)
# Summary of the method: (§1)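 Plants grown 14 days in pots of standard soil in a glasshouse (24/16 °C day/night, 14 h light, 65% humidity), then sprayed post-emergence with compound formulated in acetone and IF50 and diluted in 0.25% or 1% Empicol ESC70 + 1% ammonium sulphate. Damage scored after 13 days, 0–100 (100 = total damage).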
# [2] = tested on: Ipomoea hederacea (IPOHE); settings: Ipomoea hederacea, 312 h; post-emergence application, 500 g/Ha, evaluated after 13 days; read-out: Control of weed species IPOHE (100=total damage to plant; 0=no damage to plant)
# Summary of the method: as §1
# [3] = tested on: Lolium perenne (LOLPE); settings: Lolium perenne, 312 h; post-emergence application, 500 g/Ha, evaluated after 13 days; read-out: Control of weed species LOLPE (100=total damage to plant; 0=no damage to plant)
# Summary of the method: as §1
# [4] = tested on: Echinochloa crus-galli (ECHCG); settings: Echinochloa crus-galli, 312 h; post-emergence application, 500 g/Ha, evaluated after 13 days; read-out: Control of weed species ECHCG (100=total damage to plant; 0=no damage to plant)
# Summary of the method: as §1
# [5] = tested on: Setaria faberi (SETFA); settings: Setaria faberi, 312 h; post-emergence application, 500 g/Ha, evaluated after 13 days; read-out: Control of weed species SETFA (100=total damage to plant; 0=no damage to plant)
# Summary of the method: as §1
# [6] = tested on: Amaranthus palmeri (AMAPA); settings: Amaranthus palmeri, 312 h; post-emergence application, 500 g/Ha, evaluated after 13 days; read-out: Control of weed species AMAPA (100=total damage to plant; 0=no damage to plant)
# Summary of the method: as §1
# [7] = tested on: Euphorbia heterophylla (EPHHL); settings: Euphorbia heterophylla, 312 h; post-emergence application, 500 g/Ha, evaluated after 13 days; read-out: Control of weed species EPHHL (100=total damage to plant; 0=no damage to plant)
# Summary of the method: as §1
# [8] = tested on: Chenopodium album (CHEAL); settings: Chenopodium album, 312 h; post-emergence application, 500 g/Ha, evaluated after 13 days; read-out: Control of weed species CHEAL (100=total damage to plant; 0=no damage to plant)
# Summary of the method: as §1
# [9] = tested on: Digitaria sanguinalis (DIGSA); settings: Digitaria sanguinalis, 312 h; post-emergence application, 500 g/Ha, evaluated after 13 days; read-out: Control of weed species DIGSA (100=total damage to plant; 0=no damage to plant)
# Summary of the method: as §1
SMILES,pest or weed control at 500 g/ha [1] [%],pest or weed control at 500 g/ha [2] [%],pest or weed control at 500 g/ha [3] [%],pest or weed control at 500 g/ha [4] [%],pest or weed control at 500 g/ha [5] [%],pest or weed control at 500 g/ha [6] [%],pest or weed control at 500 g/ha [7] [%],pest or weed control at 500 g/ha [8] [%],pest or weed control at 500 g/ha [9] [%]
CN1CCN(C(=O)c2cc[n+](CCC(=O)O)nc2)CC1 [Compound A133],50,10,0,60,70,20,20,10,90
O=C(O)CC[n+]1ccc(C(=O)NCc2ccc(F)cc2)cn1 [Compound A22],60,40,40,50,50,100,90,90,60
C#CCNC(=O)c1cc[n+](CCS(=O)(=O)[O-])nc1 [Compound A16],90,80,60,90,70,100,80,90,70
CC(CC(=O)O)[n+]1ccc(C(=O)NC2(C#N)CC2)cn1 (stereo not drawn) [Compound A62],90,30,70,80,70,100,100,90,70
CCNC(=O)c1cc[n+](CC(C)C(=O)O)nc1 (stereo not drawn) [Compound A60],100,70,100,60,100,100,90,20,100
O=C(O)CC[n+]1ccc(C(=O)Nc2ccon2)cn1 [Compound A41],60,20,10,50,90,80,90,90,70
COC(=O)CC[n+]1ccc(C(=O)N(C)C)cn1 [Compound A2],10,20,20,30,30,10,50,10,50
CN(C)C(=O)c1cn[n+](CCS(=O)(=O)O)cc1-c1ccccc1 [Compound A64],40,30,20,50,30,100,40,30,40
O=C(O)CC[n+]1ccc(C(=O)Nc2cnccn2)cn1 [Compound A124],30,20,10,60,70,20,30,30,70
CC(C)(C)NC(=O)c1cc[n+](CCS(=O)(=O)O)nc1 [Compound A13],70,60,60,60,80,100,70,100,80
CCNC(=O)c1cc[n+](CCNS(=O)(=O)C(F)(F)F)nc1 [Compound A73],90,80,60,80,60,100,90,90,90
CCCNC(=O)c1cc[n+](CCC(=O)O)nc1 [Compound A46],10,40,20,80,100,50,100,70,90
CC1(C)CC(NC(=O)c2cc[n+](CCC(=O)O)nc2)=NO1 [Compound A131],20,30,0,30,30,30,90,10,30
Cn1cnc(CNC(=O)c2cc[n+](CCC(=O)O)nc2)n1 [Compound A147],90,40,90,90,80,100,80,90,100
CC(C)NC(=O)c1cc[n+](CCS(=O)(=O)O)nc1 [Compound A5],40,60,50,60,40,90,30,70,50
CNC(=O)c1cn[n+](CCC(=O)O)cc1C [Compound A53],40,50,20,70,90,90,60,70,80
COC(=O)CC[n+]1ccc(C(=O)Nc2nccs2)cn1 [Compound A42],10,10,10,10,10,20,60,40,10
C#CCNC(=O)c1cc[n+](CCC(=O)O)nc1 [Compound A17],100,100,70,90,90,100,90,100,100
CC(C)CNC(=O)c1cc[n+](CCC(=O)O)nc1 [Compound A35],100,50,70,60,90,100,100,90,80
O=C(O)CC[n+]1ccc(C(=O)NC2CC2)cn1 [Compound A31],100,30,70,70,100,100,100,100,100
